Experimental data as given in the supplement of paper PMC9912026.

Tested on: HT29
Test: pERK immunofluorescence normalised to no-drug reference (=1); higher = more ERK phosphorylation (less pathway inhibition)
Conditions: drug treatment time 24 h, EGF time 8 h
Method: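 A375 CRISPRa-EGFR (A375_aEGFR2) or HT29 cells were treated with two-drug dose combinations (vemurafenib, LY3009120, cobimetinib) for 24 h, then stimulated with EGF (100 ng/mL) or mock medium for 8 h. pERK (T202/Y204) was measured by immunofluorescence as the cytosolic population average, normalised to an untreated no-drug reference of the block (=1). Averages of 2 technical replicates. A375 in 5% FBS, HT29 in 10% FBS.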

CCCS(=O)(=O)Nc1ccc(F)c(C(=O)c2c[nH]c3ncc(-c4ccc(Cl)cc4)cc23)c1F [Vemurafenib] + O=C(c1ccc(F)c(F)c1Nc1ccc(I)cc1F)N1CC(O)([C@@H]2CCCCN2)C1 [Cobimetinib]
pERK immunofluorescence normalised
Conditions	drug B concentration 0 µM	drug B concentration 0.0001 µM	drug B concentration 0.0003162 µM	drug B concentration 0.001 µM	drug B concentration 0.00316228 µM	drug B concentration 0.01 µM	drug B concentration 0.0316228 µM	drug B concentration 0.1 µM	drug B concentration 0.316228 µM	drug B concentration 1 µM
drug A concentration 0 µM, EGF 0 ng/mL	–	1.1	0.976	0.886	0.53	0.231	0.148	0.115	0.102	0.0988
drug A concentration 0 µM, EGF 100 ng/mL	–	1.01	0.982	0.979	0.936	0.829	0.673	0.483	0.218	0.117
drug A concentration 0.000316 µM, EGF 0 ng/mL	1	1.07	1.06	0.85	0.482	0.233	0.136	0.102	0.0952	0.0916
drug A concentration 0.000316 µM, EGF 100 ng/mL	1.1	1.09	1.13	1.03	1.03	0.928	0.82	0.539	0.227	0.111
drug A concentration 0.001 µM, EGF 0 ng/mL	1.05	1.06	1.03	0.855	0.463	0.217	0.127	0.106	0.0917	0.0915
drug A concentration 0.001 µM, EGF 100 ng/mL	1.05	1.11	1.14	1.08	1.02	0.873	0.751	0.499	0.213	0.108
drug A concentration 0.00316 µM, EGF 0 ng/mL	1.07	1.06	1.02	0.836	0.463	0.225	0.132	0.0985	0.0922	0.0903
drug A concentration 0.00316 µM, EGF 100 ng/mL	1.05	1.13	1.17	1.04	1.03	0.887	0.769	0.496	0.213	0.106
drug A concentration 0.01 µM, EGF 0 ng/mL	0.924	0.922	0.868	0.73	0.416	0.201	0.124	0.0992	0.093	0.0898
drug A concentration 0.01 µM, EGF 100 ng/mL	1.03	1.04	1.04	0.958	1	0.902	0.738	0.473	0.213	0.107
drug A concentration 0.0316 µM, EGF 0 ng/mL	0.742	0.727	0.695	0.513	0.389	0.189	0.129	0.0998	0.0935	0.095
drug A concentration 0.0316 µM, EGF 100 ng/mL	0.843	0.912	0.902	0.933	0.854	0.818	0.699	0.467	0.211	0.109
drug A concentration 0.1 µM, EGF 0 ng/mL	0.43	0.429	0.451	0.339	0.213	0.148	0.124	0.109	0.101	0.1
drug A concentration 0.1 µM, EGF 100 ng/mL	0.824	0.844	0.967	0.948	0.882	0.755	0.699	0.437	0.212	0.112
drug A concentration 0.316228 µM, EGF 0 ng/mL	0.261	0.305	0.273	0.251	0.166	0.133	0.115	0.104	0.101	0.0973
drug A concentration 0.316228 µM, EGF 100 ng/mL	0.765	0.827	0.843	0.882	0.815	0.767	0.626	0.458	0.206	0.109
drug A concentration 1 µM, EGF 0 ng/mL	0.201	0.205	0.203	0.178	0.146	0.125	0.111	0.101	0.0945	0.0941
drug A concentration 1 µM, EGF 100 ng/mL	0.754	0.764	0.815	0.808	0.746	0.713	0.606	0.363	0.177	0.104
drug A concentration 3.16 µM, EGF 0 ng/mL	0.162	0.165	0.171	0.144	0.134	0.119	0.113	0.0971	0.0922	0.0932
drug A concentration 3.16 µM, EGF 100 ng/mL	0.69	0.73	0.731	0.772	0.663	0.562	0.414	0.215	0.115	0.093
drug A concentration 10 µM, EGF 0 ng/mL	0.187	0.177	0.202	0.185	0.158	0.133	0.106	0.091	0.0912	0.0919
drug A concentration 10 µM, EGF 100 ng/mL	0.541	0.517	0.524	0.486	0.441	0.323	0.187	0.107	0.0914	0.09
